BigSolDB 2.1

Nc1nc(Cl)cc(Cl)n1
solubility (mole fraction)
Settings | in 1,4-dioxane | in acetone | in acetonitrile | in cyclohexane | in ethanol | in ethyl acetate | in isopropanol | in methanol | in n-propanol | in toluene
278.15 K | – | 0.00538 | 0.00128 | – | 0.000929 | 0.00458 | 0.000517 | 0.00113 | 0.000792 | 0.000551
283.15 K | – | 0.00618 | 0.00155 | 4.26e-05 | 0.00111 | 0.00535 | 0.000645 | 0.00132 | 0.00095 | 0.000695
288.15 K | 0.0122 | 0.0073 | 0.00186 | 5.55e-05 | 0.00132 | 0.00631 | 0.000808 | 0.00158 | 0.00113 | 0.000856
293.15 K | 0.0139 | 0.00848 | 0.00223 | 7.15e-05 | 0.00158 | 0.0073 | 0.000989 | 0.00183 | 0.00136 | 0.00105
298.15 K | 0.016 | 0.0097 | 0.00265 | 9.05e-05 | 0.00183 | 0.00847 | 0.00121 | 0.00218 | 0.00163 | 0.00128
303.15 K | 0.0182 | 0.011 | 0.00314 | 0.000115 | 0.00215 | 0.00981 | 0.00148 | 0.00251 | 0.00192 | 0.00156
308.15 K | 0.0205 | 0.0126 | 0.0037 | 0.000144 | 0.00251 | 0.0113 | 0.00178 | 0.00293 | 0.00226 | 0.00188
313.15 K | 0.0233 | 0.0143 | 0.00434 | 0.000181 | 0.00293 | 0.0129 | 0.00215 | 0.00335 | 0.00265 | 0.00228
318.15 K | 0.0262 | 0.0163 | 0.00505 | 0.000224 | 0.00339 | 0.0147 | 0.00257 | 0.00389 | 0.00313 | 0.00274
